{"source": "paper PMC7083880", "about": "(Nature Communications, 2020)", "key": {"[1]": {"tested_on": "p53-null 4T1 cell tumors in nude mice", "experiment": "In vivo tumor growth, 4T1 cells in nude mice", "set-up": "species or system mouse", "protocol": "For each experimental condition, 7 mice were used. b Fourteen nude mice were injected with Calu-6 cells to promote tumor development. […] The arrow indicates the starting time of the exposure to DMSO or DAP. For each experimental condition, 7 mice were used. […] GAPDH was used as loading control. A molecular weight marker is indicated to the left of the gel. The results presented in this figure are representative of two independent experiments. p-values (p) were calculated using Student’s t-test. Source data are provided as a Source Data file.\nNext, the capacity of DAP to correct UGA nonsense mutations in vivo was assessed in a mouse model. Four-week-old immunodeficient nude mice were injected with an identical number of Calu-6 cells carrying a UGA nonsense mutation in the TP53 gene, of HCC-GR6 cells having a wild-type TP53 gene or of p53-null 4T1 cells. […] The slower growth of Calu-6-cell-derived tumors in DAP-treated mice is thus likely due to rescue of p53 protein synthesis in these tumors, as expected on the basis of our cell culture experiments and as observed after western-blotting applied to protein extracts of tumors from DAP-treated mice (Supplementary Fig. 8B). Because of the small size of the Calu-6 tumors in DAP-treated mice and thus the high probability of collecting mouse cells upon tumor excision, quantitation of p53 was done in another experiment.\nTo initiate tumor growth, 6-week-old nude mice received subcutaneously 10 million cells suspended in PBS. […] Tumors were measured three times weekly for 5 weeks to determine the tumor volume by the following formula: l (mm) × L (mm) × L (mm). The tumors were then collected and a fraction was used for western blot analysis after protein extraction. All in vivo experiments complied with all relevant ethical regulations for animal testing and research and were authorized by the Ethic Committee 075 under the number 12971-2018010815336092."}, "[2]": {"tested_on": "endogenous TP53 gene with UAG nonsense mutation in Caco-2 cells", "experiment": "p53 protein western blot, Caco-2 cells", "type": "cell-based, human", "conditions": "Caco-2 (UAG); 24 h", "protocol": "After 24 h of treatment, proteins were extracted from the cells and the p53 protein was assessed by western blotting (Fig. 2a). After DMSO mock treatment, as anticipated, no p53 protein was detected, because of the presence of the PTC in p53 mRNA[33].\nThe three leftmost lanes show twofold serial dilutions of untreated HeLa cell extract. The molecular weight is indicated to the left of each gel. b Schematic representation of the construct used to measure the function of p53. The construct carries a cDNA encoding the firefly luciferase under a promoter having two p53-responsive elements (underlined). […] The level of p21 mRNA is related to the amount of functional p53 protein synthesized in the cell. The results presented in panels b and c are representative of at least two independent experiments., p-values (p) were calculated using Student’s t-test. Source data are provided as a Source Data file. […]\nThe equivalent of 2.5 × 10^5 cells was subjected to 10% SDS–PAGE before transfer of the proteins to a nitrocellulose membrane. […] Antibodies were then detected with Super Signal West Femto Maximum Sensitivity Substrate (Pierce-Biotechnology, Rockford, IL, USA). Quantifications were performed with QuantityOne software (Biorad). […]"}}, "note": "Where “and” joins values, the source holds several entries; their conditions need not be identical. Equal values may be shown once."}
{"compound": "Nc1nc(N)c2[nH]cnc2n1", "note": "[DAP, 2,6-diaminopurine]", "values": [{"measurement": "tumor size, Average", "setting": "[1]; 4T1, day 4, average of 7 mice", "value": 0.036}, {"measurement": "tumor size, individual mice", "setting": "[1]; 4T1, day 4, mice 1-7", "value": "0.048 and 0.027"}, {"measurement": "tumor size, Average", "setting": "[1]; 4T1, day 6, average of 7 mice", "value": 0.08071}, {"measurement": "tumor size, individual mice", "setting": "[1]; 4T1, day 6, mice 1-7", "value": "0.125 and 0.064 and 0.1 and 0.048"}, {"measurement": "tumor size, Average", "setting": "[1]; 4T1, day 8, average of 7 mice", "value": 0.09843}, {"measurement": "tumor size, individual mice", "setting": "[1]; 4T1, day 8, mice 1-7", "value": "0.125 and 0.1 and 0.064"}, {"measurement": "tumor size, Average", "setting": "[1]; 4T1, day 11, average of 7 mice", "value": 0.1407}, {"measurement": "tumor size, individual mice", "setting": "[1]; 4T1, day 11, mice 1-7", "value": "0.18 and 0.125"}, {"measurement": "tumor size, Average", "setting": "[1]; 4T1, day 13, average of 7 mice", "value": 0.227}, {"measurement": "tumor size, individual mice", "setting": "[1]; 4T1, day 13, mice 1-7", "value": "0.294 and 0.18 and 0.245 and 0.216"}, {"measurement": "tumor size, Average", "setting": "[1]; 4T1, day 15, average of 7 mice", "value": 0.401}, {"measurement": "tumor size, individual mice", "setting": "[1]; 4T1, day 15, mice 1-7", "value": "0.448 and 0.567 and 0.294 and 0.343"}, {"measurement": "tumor size, Average", "setting": "[1]; 4T1, day 18, average of 7 mice", "value": 0.6964}, {"measurement": "tumor size, individual mice", "setting": "[1]; 4T1, day 18, mice 1-7", "value": "0.648 and 0.8 and 0.567 and 0.9 and 0.512"}, {"measurement": "tumor size, Average", "setting": "[1]; 4T1, day 20, average of 7 mice", "value": 0.9223}, {"measurement": "tumor size, individual mice", "setting": "[1]; 4T1, day 20, mice 1-7", "value": "0.9 and 0.968 and 0.8 and 1.44 and 0.648"}, {"measurement": "tumor size, Average", "setting": "[1]; 4T1, day 22, average of 7 mice", "value": 1.032}, {"measurement": "tumor size, individual mice", "setting": "[1]; 4T1, day 22, mice 1-7", "value": "0.9 and 0.968 and 0.8 and 1.859"}, {"measurement": "tumor size, Average", "setting": "[1]; 4T1, day 25, average of 7 mice", "value": 1.344}, {"measurement": "tumor size, individual mice", "setting": "[1]; 4T1, day 25, mice 1-7", "value": "1.089 and 1.44 and 1 and 2.7"}, {"measurement": "tumor size, Average", "setting": "[1]; 4T1, day 27, average of 7 mice", "value": 1.752}, {"measurement": "tumor size, individual mice", "setting": "[1]; 4T1, day 27, mice 1-7", "value": "1.69 and 1.859 and 1.44 and 1.584 and 1.21 and 3.15 and 1.331"}, {"measurement": "tumor size, Average", "setting": "[1]; 4T1, day 29, average of 7 mice", "value": 2.057}, {"measurement": "tumor size, individual mice", "setting": "[1]; 4T1, day 29, mice 1-7", "value": "1.69 and 2.028 and 1.859 and 1.584 and 4.046 and 1.331"}, {"measurement": "tumor size, Average", "setting": "[1]; 4T1, day 32, average of 7 mice", "value": 2.639}, {"measurement": "tumor size, individual mice", "setting": "[1]; 4T1, day 32, mice 1-7", "value": "2.156 and 2.7 and 2.028 and 5.184 and 2.352"}, {"measurement": "tumor size, Average", "setting": "[1]; 4T1, day 34, average of 7 mice", "value": 3.227}, {"measurement": "tumor size, individual mice", "setting": "[1]; 4T1, day 34, mice 1-7", "value": "2.925 and 2.548 and 2.744 and 5.776"}, {"measurement": "tumor size, Average", "setting": "[1]; 4T1, day 36, average of 7 mice", "value": 3.574}, {"measurement": "tumor size, individual mice", "setting": "[1]; 4T1, day 36, mice 1-7", "value": "2.925 and 3.15 and 7.2 and 2.744"}, {"measurement": "Tumor growth vs DMSO, in words", "setting": "[1]; 4T1, nude mice, force-fed daily, 5 weeks", "value": "no significant difference in tumor growth"}, {"measurement": "Synthesis of p53 protein (western blot)", "setting": "[2]", "value": "not in Caco-2 cells"}]}
